# From patent US4337199A, “Antibiotic β-lactam compounds, production thereof, and their use as antimicrobial agent” (Sanraku-Ocean Co., Ltd., priority 1978, dated 1982)
# How the values were obtained:
# Experiment in all cases: minimum inhibitory concentration, agar dilution assay
# Type in all cases: cell-based
# [1] = tested on: Enterobacter cloacae 45; conditions: Enterobacter cloacae, 45; agar dilution, 35° C., 20 hours; read-out: minimum inhibitory concentration
# Description: (§1) The antibiotic activities shown in Tables I-1 to I-8 above were determined in the following manner.
# (§2) The minimum inhibitory concentrations of the compounds of formula (I-a-1) or (I-b-1) in Tables I-1 to I-7 and the known compounds in Table I-8 on the various microorganisms shown in the above tables were measured by an agar dilution assay method using a brain heart infusion agar medium "Difco" (a product of Difco Laboratories Inc.)
# (§3) A sample of the test compound was dissolved in sterile distilled water and diluted to prepare a two-fold dilution series of the compound solution. In a petri plate of 9 cm diameter, 1 ml of the compound solution was added to 9 ml of molten sterile heart infusion agar medium (Difco Laboratories Inc.) at about 60° C. to prepare the compound-containing agar plate. An overnight culture of each test organism indicated in the above table which was prepared by stationary cultivation in Trypto-Soy broth (Eiken Chemi. Co., Ltd.) at 35° C. for 18 to 20 hours, was diluted with the Trypto-Soy broth to give approximately 10^8 cells/ml and the diluted inoculum was inoculated onto the compound-containing agar plates. After cultivating the plates at 35° C. for 20 hours, the growth of the organism was observed. The minimum concentration of the compound at which no growth of the microorganism was noted was determined, and defined as the minimum inhibitory concentration of the test compound.
# [2] = tested on: Escherichia coli K-12; conditions: K12, agar dilution, 35° C., 20 hours, read-out: minimum inhibitory concentration
# Description: as §1, §2, §3
# [3] = tested on: Pseudomonas aeruginosa IFO3445; conditions: IFO3445, agar dilution, 35° C., 20 hours, read-out: minimum inhibitory concentration
# Description: as §1, §2, §3
# [4] = tested on: Staphylococcus aureus Russell; conditions: agar dilution, 35° C., 20 hours, read-out: minimum inhibitory concentration
# Description: as §1, §2, §3
# [5] = tested on: Enterobacter aerogenes E19; conditions: Klebsiella aerogenes, E19; agar dilution, 35° C., 20 hours; read-out: minimum inhibitory concentration
# Description: as §1, §2, §3
# [6] = tested on: Comamonas terrigena B-996; conditions: B996, agar dilution, 35° C., 20 hours, read-out: minimum inhibitory concentration
# Description: as §1, §2, §3
# [7] = tested on: Bacillus subtilis ATCC 6633; conditions: ATCC6633, agar dilution, 35° C., 20 hours, read-out: minimum inhibitory concentration
# Description: as §1, §2, §3
# [8] = tested on: Escherichia coli RGN 823; conditions: RGN823, agar dilution, 35° C., 20 hours, read-out: minimum inhibitory concentration
# Description: as §1, §2, §3
# [9] = tested on: Alcaligenes faecalis A 1; conditions: A1, agar dilution, 35° C., 20 hours, read-out: minimum inhibitory concentration
# Description: as §1, §2, §3
# [10] = tested on: Staphylococcus aureus FDA 209P; conditions: FDA209P, agar dilution, 35° C., 20 hours, read-out: minimum inhibitory concentration
# Description: as §1, §2, §3
# [11] = tested on: Klebsiella pneumoniae K-13; conditions: K13, agar dilution, 35° C., 20 hours, read-out: minimum inhibitory concentration
# Description: as §1, §2, §3
# [12] = tested on: Sarcina lutea; conditions: Micrococcus luteus; agar dilution, 35° C., 20 hours; read-out: minimum inhibitory concentration
# Description: as §1, §2, §3
# [13] = tested on: Pseudomonas aeruginosa NCTC10490; conditions: NCTC10490, agar dilution, 35° C., 20 hours, read-out: minimum inhibitory concentration
# Description: as §1, §2, §3
# [14] = tested on: Proteus vulgaris GN76; conditions: GN76, agar dilution, 35° C., 20 hours, read-out: minimum inhibitory concentration
# Description: as §1, §2, §3
# [15] = tested on: Proteus mirabilis P6; conditions: P6, agar dilution, 35° C., 20 hours, read-out: minimum inhibitory concentration
# Description: as §1, §2, §3
# [16] = tested on: Staphylococcus aureus Smith; conditions: agar dilution, 35° C., 20 hours, read-out: minimum inhibitory concentration
# Description: as §1, §2, §3
# [17] = tested on: Serratia marcescens S18; conditions: S18, agar dilution, 35° C., 20 hours, read-out: minimum inhibitory concentration
# Description: as §1, §2, §3
# [18] = tested on: Proteus rettgeri P7; conditions: Providencia rettgeri, P7; agar dilution, 35° C., 20 hours; read-out: minimum inhibitory concentration
# Description: as §1, §2, §3
# [19] = tested on: Staphylococcus epidermidis; conditions: agar dilution, 35° C., 20 hours, read-out: minimum inhibitory concentration
# Description: as §1, §2, §3
# [20] = tested on: Providencia sp. P8; conditions: SP.P8, agar dilution, 35° C., 20 hours, read-out: minimum inhibitory concentration
# Description: as §1, §2, §3
# [21] = tested on: Serratia marcescens T55; conditions: T55, agar dilution, 35° C., 20 hours, read-out: minimum inhibitory concentration
# Description: as §1, §2, §3
# [22] = tested on: Enterobacter sp. E8; conditions: SP.E8, agar dilution, 35° C., 20 hours, read-out: minimum inhibitory concentration
# Description: as §1, §2, §3
# [23] = tested on: Citrobacter freundii GN 346; conditions: GN346, agar dilution, 35° C., 20 hours, read-out: minimum inhibitory concentration
# Description: as §1, §2, §3
# [24] = tested on: Proteus sp. P22; conditions: agar dilution, 35° C., 20 hours; read-out: minimum inhibitory concentration
# Description: as §1, §2, §3
Compound,MIC [1] [µg/mL],MIC [2] [µg/mL],MIC [3] [µg/mL],MIC [4] [µg/mL],MIC [5] [µg/mL],MIC [7] [µg/mL],MIC [8] [µg/mL],MIC [9] [µg/mL],MIC [10] [µg/mL],MIC [12] [µg/mL],MIC [13] [µg/mL],MIC [14] [µg/mL],MIC [15] [µg/mL],MIC [16] [µg/mL],MIC [17] [µg/mL],MIC [18] [µg/mL],MIC [19] [µg/mL],MIC [20] [µg/mL],MIC [21] [µg/mL],MIC [24] [µg/mL],other results
CC(O)[C@H]1C(=O)N2C(C(=O)O)=C(SC3CCCCC3)C[C@H]12 (stereo partly shown),> 100,> 100,> 100,0.2,> 100,6.25,> 100,25,0.05,0.05,25,> 100,100,0.39,> 100,> 100,0.39,> 100,> 100,> 100,MIC [6]: 0.05 µg/mL; MIC [11]: > 100 µg/mL; MIC [22]: > 100 µg/mL; MIC [23]: > 100 µg/mL
CC(C)C1C(=O)N2C(C(=O)O)=C(Sc3ccccn3)CC12 (stereo not shown),–,–,50,–,–,–,–,–,–,–,50,12.5,–,–,50,6.25,–,3.13,50,12.5,–
CC(C)C1C(=O)N2C(C(=O)O)=C(SC3CCCCC3)CC12 (stereo not shown),> 100,> 100,> 100,0.025,> 100,0.2,> 100,6.25,0.025,0.025,50,> 100,100,0.05,> 100,> 100,0.05,> 100,> 100,100,MIC [6]: 0.007 µg/mL; MIC [11]: > 100 µg/mL; MIC [22]: > 100 µg/mL; MIC [23]: > 100 µg/mL
CC(O)[C@H]1C(=O)N2C(C(=O)O)=C(Sc3ccccc3)C[C@H]12 (stereo partly shown),> 100,50,25,0.78,> 100,6.25,50,25,0.05,0.05,6.25,> 100,100,1.56,> 100,> 100,0.39,50,> 100,> 100,MIC [6]: 0.05 µg/mL; MIC [11]: > 100 µg/mL; MIC [22]: 100 µg/mL; MIC [23]: > 100 µg/mL
"CC(O)[C@H]1C(=O)N2C(C(=O)O)=C(Sc3ccncc3)C[C@H]12 (stereo partly drawn) [Example 59, 5,6-trans-3-(4-Pyridylthio)-6-(1-hydroxyethyl)-7-oxo-1-azabicyclo[3.2.0]hept-2-ene-2-carboxylic acid]",50,1.56,–,0.2,50,0.2,25,0.025,0.1,0.1,1.56,–,6.25,0.2,–,6.25,0.2,1.56,100,–,MIC [22]: 0.78 µg/mL; MIC [23]: 100 µg/mL

# Further lines, with some results ahead:
MIC [1] [µg/mL],MIC [2] [µg/mL],MIC [3] [µg/mL],MIC [4] [µg/mL],MIC [5] [µg/mL],MIC [7] [µg/mL],MIC [8] [µg/mL],MIC [9] [µg/mL],MIC [10] [µg/mL],MIC [12] [µg/mL],MIC [13] [µg/mL],MIC [14] [µg/mL],MIC [15] [µg/mL],MIC [16] [µg/mL],MIC [17] [µg/mL],MIC [18] [µg/mL],MIC [19] [µg/mL],MIC [20] [µg/mL],MIC [21] [µg/mL],MIC [24] [µg/mL],Compound,other results
1.56,0.2,25,0.2,0.39,0.013,6.25,0.39,0.013,0.013,25,25,3.13,0.1,12.5,6.25,0.2,0.78,12.5,100,"CC(O)C1C(=O)N2C(C(=O)O)=C(SCCO)CC12 (stereo not shown) [R1 --OH**, R21 --CH2 CH2 OH]",MIC [6]: 0.013 µg/mL; MIC [11]: 25 µg/mL; MIC [22]: 0.2 µg/mL; MIC [23]: 0.78 µg/mL
> 100,6.25,25,0.013,> 100,0.013,3.13,0.39,0.007,0.013,25,12.5,3.13,0.025,25,3.13,0.05,1.56,> 100,12.5,"CC(C)C1C(=O)N2C(C(=O)O)=C(Sc3ncccn3)CC12 (stereo not shown) [Example 62, 3-(2-Pyrimidinylthio)-6-isopropyl-7-oxo-1-azabicyclo[3.2.0]hept-2-ene-2-carboxylic acid]",MIC [6]: 0.013 µg/mL; MIC [11]: 25 µg/mL; MIC [22]: 12.5 µg/mL; MIC [23]: 50 µg/mL
25,1.56,12.5,< 0.012,12.5,< 0.012,3.13,0.2,< 0.012,< 0.012,12.5,6.25,3.13,0.024,12.5,3.13,0.024,0.78,25,12.5,"CCC1C(=O)N2C(C(=O)O)=C(Sc3ncccn3)CC12 (stereo not shown) [Example 61, 3-(2-pyrimidinylthio)-6-ethyl-7-oxo-1-azabicyclo[3.2.0]hept-2-ene-2-carboxylic acid]",MIC [6]: < 0.012 µg/mL; MIC [11]: 12.5 µg/mL; MIC [22]: 3.13 µg/mL; MIC [23]: 25 µg/mL
50,1.56,12.5,0.39,100,0.39,3.13,1.56,0.2,0.2,12.5,12.5,12.5,0.39,50,12.5,0.39,0.78,100,12.5,"CC(O)[C@H]1C(=O)N2C(C(=O)O)=C(Sc3ncccn3)C[C@H]12 (stereo partly drawn) [Example 63, 5,6-trans-3-(2-Pyrimidinylthio)-6-(1-hydroxyethyl)-7-oxo-1-azabicyclo[3.2.0]hept-2-ene-2-carboxylic acid]",MIC [6]: 0.05 µg/mL; MIC [11]: 25 µg/mL; MIC [22]: 6.25 µg/mL; MIC [23]: 100 µg/mL
–,–,12.5,–,–,–,–,–,–,–,25,12.5,–,–,12.5,6.25,–,1.56,25,6.25,"CCC1C(=O)N2C(C(=O)O)=C(Sc3ccccn3)CC12 (stereo not shown) [Example 65, 3-(2-Pyridylthio)-6-ethyl-7-oxo-1-azabicyclo-[3.2.0]hept-2-ene-2-carboxylicacid]",–
